Experimental data reported in US12104180B2, “Enzyme with acyl transfer function and application thereof” (OCEAN UNIVERSITY OF CHINA, priority 2020, dated 2024).
Positions count from the first letter of the chain named. In names and notes the source's numbering stands.

Columns and labels:
[1] = test system: Burkholderia cepacia varieties; conditions: cited from earlier work
[2] = test system: vancomycin-resistant Enterococci; conditions: cited from earlier work
[3] = test system: methicillin-resistant Staphylococcus aureus; conditions: cited from earlier work
Staphylococcus aureus = conditions: cited from earlier work
Pyricularia oryzae = conditions: cited from earlier work
Alternaria alternata = conditions: cited from earlier work
[4] = test system: B1-F10 murine melanoma cells; conditions: cited from earlier work
HIV virus = conditions: cited from earlier work
[5] = test system: mammalian herpes simplex virus; conditions: cited from earlier work
[6] = type: biochemical; conditions: 30° C., 2 h, substrate Macrolactin A

## CC1CCCC=CC=CC(O)CC(O)CC=CC=CC(OC(=O)CC(=O)O)CC=CC=CC(=O)O1 (centres unmarked) [7-O-malonyl Macrolactin A]
[1]
  inhibition of Burkholderia cepacia varieties: can sufficiently inhibit
[2]
  inhibition of vancomycin-resistant Enterococci: can sufficiently inhibit
[3]
  inhibition of methicillin-resistant Staphylococcus aureus: can sufficiently inhibit

## Macrolactin B
Staphylococcus aureus
  inhibition of Staphylococcus aureus: inhibit
Pyricularia oryzae
  effect on plant pathogenic fungus Pyricularia oryzae: obvious effects
Alternaria alternata
  effect on plant pathogenic fungus Alternaria alternata: obvious effects

## Macrolactin T
Staphylococcus aureus
  inhibition of Staphylococcus aureus: inhibit
Pyricularia oryzae
  effect on plant pathogenic fungus Pyricularia oryzae: obvious effects
Alternaria alternata
  effect on plant pathogenic fungus Alternaria alternata: obvious effects

## C[C@@H]1CCC/C=C/C=C/[C@H](O)C[C@@H](O)C/C=C\C=C\[C@@H](O)C/C=C/C=C\C(=O)O1 [Macrolactin A]
[4]
  inhibition of B1-F10 murine melanoma cells: can inhibit
HIV virus
  protection of lymphocytes through inhibiting HIV virus: can protect lymphocytes
[5]
  inhibition of mammalian herpes simplex virus: can inhibit

B1: wild-type BmmI protein: acyltransferase BmmI from marine-derived Bacillus methylotrophicus B-9987, sequence SEQ ID NO:1 (protein)
chain: MKQTISNPAFDMKQINALNGHYQTMIDNGDLQCASYMMSRGGEVFAAESLGEFTGGQKEKQTFQLDTIREIGSLTKVFTAVAVMQLVEKGLLDLKMPVKLILPAFDKPGFGEIKILHLLTHTAGLSFELDIQKAEGIDLTNEEEWINYLVSTPLEYGVDEAWNYSRTGFVILGIIISKVTGVSYEQYVTKHIIEALGLERTYFYVPDTLKEEVCVISEHECVQLEKSHHPYFPNKATSGLYSSLRDIWKLAEMFRNKGRLKDKKLLGRKTVEAMLRNQIKPGLPFYFFGAPREEGGFGLGINLWPAGDHYFMTEGTFSHLGMGWCGMFSDPAEDFTYVFFTPISEFHPHAVLTPLNIVWAGIE
modifications: bmmI acyltransferase protease sequence
[6]; FIG. 7
  acyl donors recognized (side chain length): malonyl-CoA (C3), succinyl-CoA (C4), glutaryl-CoA (C5) and hexanedioyl-CoA (C6)

B2: R166G (protein)
chain: B1 chain with R166G
modifications: mutant protein R166G amino acid sequence
[6]; compared with wild type towards malonyl-CoA
  catalytic efficiency towards glutaryl-CoA, hexanedioyl-CoA, acetyl-CoA, and acetyl-CoA: equivalent to that of the wild-type protein towards malonyl-CoA
